The source of these data is patent US7977362B2, “Alpha-(N-benzenesulfonamido)cycloalkyl derivatives” (Bristol-Myers Squibb Company, priority 2009, dated 2011).

As usually defined, the IC50 is the concentration that gives 50% inhibition. Read a low IC50 as greater potency.

The subject of one experiment is Aβ formation (γ-secretase) in H4 cells stably transfected to overexpress the HPLAP-APP fusion protein. The experiment in a line: In vitro assay based on the inhibition of Aβ formation in cultured cells. It counts as cell-based, human. The conditions noted are these: Homo sapiens, 18 h, H4 cells overexpressing HPLAP-APP, 18 hrs incubation at 37° C., Aβ in supernatant by time-resolved fluorescence; class symbols. As to the method: Cultured human cell lines, such as HEK293 and H4 cells, which express APP and γ-secretase activity or transfected derivative cell lines that overexpress wild-type APP, mutant APP, or APP fusion proteins will secrete Aβ peptides into the culture media that can be quantified as previously outlined (Dovey, H. et al., J. Neurochem., 76:173-181 (2001)). The incubation of these cultured cells with γ-secretase inhibitors decreases the production of Aβ peptides. For instance, H4 cells stably transfected to overexpress the HPLAP-APP fusion protein described above were grown as above, detached, and adjusted to 2×10^5 cells/ml. 100 μl of the resulting suspension was then added to each well of a 96-well plate. After 4 hrs, the media was removed and replaced with 100 μl serum-free media containing various dilutions of the test compound. Plates were then incubated for 18 hrs at 37° C. and a 100 μl aliquot of the tissue culture supernatant was removed for determination of Aβ levels using time-resolved fluorescence of the homogenous sample as outlined above. Alternately, the other methods described above for Aβ determination could be used. The extent of Aβ inhibition was used to calculate the IC50 value for the test compound.
In the table, an inhibitory concentration (IC50) of less than or equal to 50 nM is represented by +++; between 50 nM and 500 nM by ++; between 500 nM and 5000 nM by +.
As to `O=S(=O)(c1ccc(Cl)cc1)N(Cc1ccc(-c2ncco2)cc1F)[C@@H]1CCCC[C@H]1CF` [Compound 22, 4-Chloro-N-(2-fluoro-4-(oxazol-2-yl)benzyl)-N-((1R,2R)-2-(fluoromethyl)cyclohexyl)benzenesulfonamide], the IC50 was at most 50 nM.

`CC(C)(O)[C@@H]1CCCC[C@H]1N(Cc1ccc(-c2ncco2)cc1F)S(=O)(=O)c1ccc(Cl)cc1` [Compound 23, 4-Chloro-N-(2-fluoro-4-(oxazol-2-yl)benzyl)-N-((1R,2R)-2-(2-hydroxypropan-2-yl)cyclohexyl)benzenesulfonamide] had an IC50 of 500 to 5000 nM. Compound `O=S(=O)(c1ccc(C(F)(F)F)nc1)N(Cc1cc(F)c(-c2ncon2)cc1F)[C@@H]1CCCC[C@H]1CO` [Compound 26, N-(2,5-Difluoro-4-(1,2,4-oxadiazol-3-yl)benzyl)-N-((1R,2R)-2-(hydroxymethyl)cyclohexyl)-6-(trifluoromethyl)pyridine-3-sulfonamide] showed an IC50 of at most 50 nM.

In turn, `O=S(=O)(c1ccc(Cl)cc1)N(Cc1ccc(Br)cc1)C1CC2CCC1C2O` (centres unmarked) [Compound 33, N-(4-Bromobenzyl)-N-(7-hydroxybicyclo[2.2.1]heptan-2-yl)-4-chlorobenzenesulfonamide] displayed a half-inhibitory concentration (IC50) of 500 to 5000 nM. The same measure, in the same setting: the result for `O=S(=O)(c1ccc(Cl)cc1)N(Cc1ccc(-c2ncco2)cc1)C1CC2CCC1C2O` (centres unmarked) [Compound 34, N-(4-(Oxazol-2-yl)benzyl)-N-(7-hydroxybicyclo[2.2.1]heptan-2-yl)-4-chlorobenzenesulfonamide] reads 500 to 5000 nM.

For the compound `O=S(=O)(c1ccc(Cl)cc1)N(Cc1ccc(-c2ncon2)cc1)C1(CO)CCCCC1` [Compound 37, N-(4-(1,2,4-Oxadiazol-3-yl)benzyl)-4-chloro-N-(1-(hydroxymethyl)cyclohexyl)benzenesulfonamide], the IC50 fell in the range of 500 to 5000 nM.

Staying with this experiment, now noted: Homo sapiens, 18 h, H4 cells overexpressing HPLAP-APP, 18 hrs incubation at 37° C., Aβ in supernatant by time-resolved fluorescence; numeric values.
Regarding `O=S(=O)(c1ccc(Cl)cc1)N(Cc1ccc(-c2ncon2)cc1)C1CC2CCC1C2O` (centres unmarked) [Compound 35, N-(4-(1,2,4-Oxadiazol-3-yl)benzyl)-N-(7-hydroxybicyclo[2.2.1]heptan-2-yl)-4-chlorobenzenesulfonamide], half-maximal inhibition (IC50) was put at 3240 nM. The compound `O=S(=O)(c1ccc(Cl)cc1)N(Cc1ccc(-c2ncco2)cc1)C1(CO)CCCCC1` [Compound 36, 4-Chloro-N-(1-(hydroxymethyl)cyclohexyl)-N-(4-(oxazol-2-yl)benzyl)benzenesulfonamide] gave a concentration for half-maximal inhibition (IC50) of 346 nM.
